Measured values taken from patent EP0468634A1, “The use of macrocyclic aminophosphonic acid complexes as imaging agents” (THE DOW CHEMICAL COMPANY, priority 1990, dated 1992).
Values belong to the compound of their own block, whether it stands above or below them.

Legend:
[1] = Determination of water proton T1 relaxation time (inversion recovery NMR, 270 MHz); type: physicochemical; conditions: deoxygenated, Example 1 complex at 680 µMolar in 20% D₂O (vol/vol)
Protocol: The complex from Example 1 was deoxygenated by bubbling dry nitrogen gas through it for 20 min. The sample was then placed in a 5 mm NMR tube and placed in a 270 MHz spectrometer for determination of the water proton relaxation time.
The NMR experiment used to measure the relaxation time was the standard inversion recovery technique for measuring spin-lattice (T₁) relaxation times. In this technique the intensity of the water proton NMR resonance is measured as a function of a variable delay time between radiofrequency pulses during which the spin system relaxes toward equilibrium. The final data, which consisted of peak intensities versus delay time, was plotted and fitted to an exponential function. The characteristic time for spin magnetization to reestablish itself (T₁) is obtained from the time constant of the fitted exponential function. The value for T₁ for the complex of Example 1 was 244 mS. This compares favorably to a value of 422 mS for a Gd-DTPA, and 540 mS for Gd-DOTA when the experiment was repeated using these complexes. (The Gd-DTPA and Gd-DOTA are known commercial MRI agents.)

[2] = Biodistribution of Gd-DOTMP complex in a rat: Gd in femur by inductively coupled plasma spectroscopy; type: in vivo, Sprague Dawley rat
Protocol: A 150 g Sprague Dawley rat was injected with 6-100 µL portions of the Gd-DOTMP, prepared in Example 4, over a 4 day period. This rat was then sacrificed and one of its femur bones was removed and found to weigh 0.690 g. This bone was dissolved in 5 mL of concentrated HCl and analyzed for Gd by inductively coupled plasma spectroscopy. The amount of Gd found in the femur bone was 16.76 µg, which corresponds to 419 µg in the total rat skeleton, assuming the femur is 1/25th of the total skeleton. This corresponds to 25.5% of the injected dose going to the bone. That result compares favorably with similar work done with radioactive tracer ¹⁵³Sm where at these high levels of injected doses about 25-30% of the injected dose localizes in the bone. Thus the behavior of Sm-DOTMP and Gd-DOTMP are very similar in vivo.

[3] = Quantitative biodistribution of 159Gd tracer formulation in rat (NaI scintillation counting of tissues); type: in vivo, Sprague Dawley rat; conditions: 100 µL via tail vein, 2 hours after injection, ligand to metal molar ratio 1.5, 0.32 mg/mL
Excerpt: Quantitative biodistributions were obtained by injecting 50-100 microliters of the composition into the rail vein of unanesthetized male Sprague Dawley rats. The rats were then placed in cages lined with absorbent paper in order to collect all urine excreted prior to sacrifice. After a given period of time, the rats were sacrificed by cervical dislocation and the various tissues dissected. The samples were then rinsed with saline, blotted dry on absorbent paper and weighed. The radioactivity in the samples was measured with a NaI scintillation counter.
A 1.45 mg sample of DOTMP, prepared by the procedure of Example B, was placed in a vial and dissolved in 760 µL of water and 5 µL of 50% (wt/wt) of NaOH. A volume of 1000 µL of Gd solution (0.3 mM Gd in O.1N HCl), which contained tracer quantities of ¹⁵⁹Gd, was placed in a separate vial and 15 µL of the DOTMP solution was added. The pH of the solution was adjusted to 7 to 8 using NaOH. The amount of Gd as a complex was determined to be > 99% by cation exchange chromatography. This formulation has a ligand to metal molar ratio of 1.5.
A Sprague Dawley rat was injected with the above prepared formulation and the biodistribution determined. The rat was allowed to acclimate for five days then injected with 100 µL of the Gd solution described above via a tail vein. The rat weighed between 150 and 200 g at the time of injection. After 2 hours the rat was killed by cervical dislocation. Tissues were taken, weighed and the amount of radioactivity in each tissue was determined by counting in a NaI scintillation counter coupled to a multichannel analyzer. The counts in each tissue were compared to the counts in 100 µL standards in order to determine the percentage of the injected dose in each tissue or organ. The ligand (DOTMP) to metal (Gd) molar ratio = 1.5.

Compound: Gd-DOTMP [Example 1]
T₁ (spin-lattice relaxation time of water protons) [1]: 244 mS
amount of Gd found in the femur bone ([2]; 150 g rat, 6-100 µL portions over a 4 day period, femur 0.690 g, ICP): 16.76 µg
% of the injected dose going to the bone ([2]; 150 g rat, 6-100 µL portions over a 4 day period, from femur Gd): 25.5%
Gd in the total rat skeleton ([2]; assuming the femur is 1/25th of the total skeleton): 419 µg

T₁ (spin-lattice relaxation time of water protons) [1]: 540 mS
Compound: O=C([O-])CN1CCN(CC(=O)[O-])CCN(CC(=O)O)CCN(CC(=O)[O-])CC1.[Gd+3] [Gd-DOTA]

Compound: O=C([O-])CN(CCN(CC(=O)[O-])CC(=O)O)CCN(CC(=O)[O-])CC(=O)O.[Gd+3] [Gd-DTPA]
T₁ (spin-lattice relaxation time of water protons) [1]: 422 mS

Compound: ¹⁵⁹Gd-DOTMP [Ho-DOTMP]
% OF INJECTED DOSE (159Gd) in Blood [3]: 0.08%
% OF INJECTED DOSE (159Gd) in Bone [3]: 50%
% OF INJECTED DOSE (159Gd) in Kidney [3]: 0.25%
% OF INJECTED DOSE (159Gd) in Liver [3]: 0.08%
